According to US11415579B2, “Assay for measuring a rate of reaction between a target and a ligand candidate” (Imperial College Innovations Ltd., priority 2016, dated 2022):

Columns and labels:
[1] = Kinetic thiol consumption assay with model thiol glutathione; format: physicochemical; set-up: Rate constant with glutathione (k(GSH)): unit not given here; details: for Rate constant with glutathione (k(GSH)): 500 μM ligand, 5 μM thiol, phosphate buffer pH 8; for Rate constant with Glutathione: Protein: Glutathione, cysteine position NA, in h-1
How it was run: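 GSH 5 μM, degassed phosphate buffer pH 8, TCEP beads 2% v/v; acrylamide added; RT, 1 h; fluorescence ex/em 380/470 nm; normalized to DMSO/thiol control; k from first-order exponential decay fit.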

[2] = target: T1, human cyclin-dependent kinase 2 (Cdk2) (Homo sapiens, UniProt P24941); test: Kinetic thiol consumption assay with wild type Cdk2 (C177); format: binding; set-up: key to Rate enhancement, Cdk2 WT: k(Cdk2) divided by k(model thiol); Rate constant with Cdk2 (k(Cdk2)): unit not given here; details: for Rate constant with Cdk2 (k(Cdk2)): 500 μM ligand, 5 μM thiol, phosphate buffer pH 8; for Rate enhancement, Cdk2 WT: no additional mutations; for Rate constant with Cdk2 WT: Protein: Cdk2, cysteine position WT, in h^-1; for k(Cdk2)/k(Cdk2_mut) rate enhancement: model thiol Cdk2[C177A, F80C, K278C]; for k(Cdk2)/k(GSH) rate enhancement: model thiol glutathione
T1 construct: poly-histidine; made in house; host or cells: E. coli
How it was run: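 His-tagged human Cdk2 from E. coli (sole surface cysteine C177) or a model thiol, each 5 μM in degassed phosphate buffer pH 8 with immobilized TCEP, reacted with acrylamides at room temperature. Fluorescence (ex 380/em 470) normalized to DMSO/thiol control over time; first-order rate constants, Cdk2 rate divided by model-thiol rate.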

Cdk2(R122C) (C177A) = target: T2, Cdk2(R122C) (C177A) (Homo sapiens, UniProt P24941, C177A/R122C); test: Kinetic thiol consumption assay with Cdk2 mutant R122C; format: binding; set-up: key to Rate enhancement, Cdk2 R122C: rate constant with Cdk2 ÷ rate constant with model thiol (fold); details: additional mutation C177A; for Rate constant with Cdk2 R122C: Protein: Cdk2, cysteine position R122C, in h-1
T2 construct: poly-histidine; made in house; host or cells: E. coli
How it was run: (§1)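 5 μM thiol, degassed phosphate pH 8, 2% v/v immobilized TCEP beads; 1 h RT; fluorescence ex 380/em 470 nm; normalized vs DMSO/thiol-only; first-order exponential decay fit → rate constant; Cdk2 k / model-thiol k = rate enhancement per acrylamide.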

Cdk2(S276C) (C177A) = target: T3, Cdk2(S276C) (C177A) (Homo sapiens, UniProt P24941, C177A/S276C); test: Kinetic thiol consumption assay with Cdk2 mutant S276C; format: binding; set-up: key to Rate enhancement, Cdk2 S276C: rate constant with Cdk2 ÷ rate constant with model thiol (fold); details: additional mutation C177A; for Rate constant with Cdk2 S276C: Protein: Cdk2, cysteine position S276C, in h^-1
T3 construct: poly-histidine; made in house; host or cells: E. coli
How it was run: as §1

Cdk2(N272C) (C177A) = target: T4, Cdk2(N272C) (C177A) (Homo sapiens, UniProt P24941, C177A/N272C); test: Kinetic thiol consumption assay with Cdk2 mutant N272C; format: binding; set-up: key to Rate enhancement, Cdk2 N272: rate constant with Cdk2 ÷ rate constant with model thiol (fold); details: for Rate enhancement, Cdk2 N272: Cdk2 N272, additional mutation C177A; for Rate constant with Cdk2 N272C: Protein: Cdk2, cysteine position N272C, additional mutation C177A, in h^-1
T4 construct: poly-histidine; made in house; host or cells: E. coli
How it was run: as §1

Cdk2(H71C) (C177A) = target: T5, Cdk2(H71C) (C177A) (Homo sapiens, UniProt P24941, C177A/H71C); test: Kinetic thiol consumption assay with Cdk2 mutant H71C; format: binding; set-up: key to Rate enhancement, Cdk2 H71C: rate constant with Cdk2 ÷ rate constant with model thiol (fold); details: additional mutation C177A; for Rate constant with Cdk2 H71C: Protein: Cdk2, cysteine position H71C, in h^-1
T5 construct: poly-histidine; made in house; host or cells: E. coli
How it was run: as §1

Cdk2(T182C) (C177A) = target: T6, Cdk2(T182C) (C177A) (Homo sapiens, UniProt P24941, C177A/T182C); test: Kinetic thiol consumption assay with Cdk2 mutant T182C; format: binding; set-up: key to Rate enhancement, Cdk2 T182C: rate constant with Cdk2 ÷ rate constant with model thiol (fold); details: additional mutation C177A; for Rate constant with Cdk2 T182C: Protein: Cdk2, cysteine position T182C, in h^-1
T6 construct: poly-histidine; made in house; host or cells: E. coli
How it was run: as §1

Cdk2(S181C) (C177A) = target: T7, Cdk2(S181C) (C177A) (Homo sapiens, UniProt P24941, C177A/S181C); test: Kinetic thiol consumption assay with Cdk2 mutant S181C; format: binding; set-up: key to Rate enhancement, Cdk2 S181C: rate constant with Cdk2 ÷ rate constant with model thiol (fold); details: additional mutation C177A; for Rate constant with Cdk2 S181C: Protein: Cdk2, cysteine position S181C, in h^-1
T7 construct: poly-histidine; made in house; host or cells: E. coli
How it was run: as §1

Cdk2[C177A, F80C, K278C] = target: T8, Cdk2[C177A, F80C, K278C] (Homo sapiens, UniProt P24941, C177A/F80C/K278C); test: Kinetic thiol consumption assay with mutant Cdk2 as model thiol; format: binding; set-up: unit not given here; details: 500 μM ligand, 5 μM thiol, phosphate buffer pH 8
T8 construct: poly-histidine; made in house; host or cells: E. coli
Procedure: A library of 120 acrylamides was screened against a) human cyclin-dependent kinase 2 (Cdk2, which contains one surface exposed cysteine residue—C177), prepared by cloning cDNA into the pRSETA bacterial expression vector to generate a poly-histidine tagged Cdk2 fusion that was purified from E. coli using standard techniques, and b) a model thiol (specific details are given below). The structures of these 120 acrylamides are set out in Table 1, above.
To wells containing 150 μL thiol (Cdk2 or model thiol) (5 μM) in degassed phosphate buffer (pH 8) was added immobilized TCEP beads (2% v/v).
After incubation of the fluorescence plates for 1 hour at room temperature, fluorescence measurements (excitation/emission of 380/470 nm) were taken on a PerkinElmer EnVision multilabel plate reader and processed with EnVision Workstation version 1.12.
Fluorescence measurements were normalized against a DMSO/thiol only control and plotted against time.
Rate constants were calculated using GraphPad software Prism version 6 by fitting a first order exponential decay to the data. The rate constant for each acrylamide with Cdk2 was divided by the rate constant for that fragment with the model thiol to provide the rate enhancement for each ligand candidate.
The model thiol used in Example 2 is a mutant form of human Cdk2 (C177A, F80C, K278C) which contains two engineered surface exposed cysteine residues. Mutations were introduced by site-directed mutagenesis and the resulting cDNA was cloned into the pRSETA bacterial expression vector to generate a poly-histidine tagged Cdk2 fusion that was purified from E. coli using standard techniques.

Cdk2(C177A, F80C) = target: T9, Cdk2(C177A, F80C) (Homo sapiens, UniProt P24941, C177A/F80C); test: Kinetic thiol consumption assay with Cdk2 mutant F80C, incl. kobs versus concentration (Kd, k2); format: binding; set-up: key to Rate enhancement, Cdk2 F80C: Cdk2 rate constant divided by model-thiol rate constant; details: additional mutation C177A; for Rate constant with Cdk2 F80C: Protein: Cdk2, cysteine position F80C, in h^-1
T9 construct: poly-histidine; made in house; host or cells: E. coli
How it was run: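 His-tagged Cdk2(C177A/F80C) from E. coli or model thiol, 5 μM in degassed phosphate buffer pH 8 with TCEP beads, reacted with acrylamide ligands; fluorescence (ex/em 380/470 nm) normalized to DMSO control and fitted to first-order decay for kobs. Kd and k2 obtained from hyperbolic fit of kobs versus ligand concentration.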

Row | Rate constant with Cdk2 (k(Cdk2)) [2] | Rate enhancement, Cdk2 WT [2] | Rate constant with Cdk2 WT [2] | k(Cdk2)/k(Cdk2_mut) rate enhancement [2] | k(Cdk2)/k(GSH) rate enhancement [2] | Rate enhancement, Cdk2 R122C (Cdk2(R122C) (C177A)) | Rate constant with Cdk2 R122C (Cdk2(R122C) (C177A)) | Rate enhancement, Cdk2 S276C (Cdk2(S276C) (C177A)) | Rate constant with Cdk2 S276C (Cdk2(S276C) (C177A)) | Rate enhancement, Cdk2 N272 (Cdk2(N272C) (C177A)) | Rate constant with Cdk2 N272C (Cdk2(N272C) (C177A)) | Rate enhancement, Cdk2 H71C (Cdk2(H71C) (C177A)) | Rate enhancement, Cdk2 T182C (Cdk2(T182C) (C177A)) | Rate constant with Cdk2 T182C (Cdk2(T182C) (C177A)) | Rate enhancement, Cdk2 S181C (Cdk2(S181C) (C177A)) | Rate constant with Cdk2 S181C (Cdk2(S181C) (C177A)) | Rate constant with Cdk2[C177A, F80C, K278C] (k(Cdk2_mut)) (Cdk2[C177A, F80C, K278C]) | Rate enhancement, Cdk2 F80C (Cdk2(C177A, F80C)) | Compound | Rate constant with glutathione (k(GSH)) [1] | Rate constant with Glutathione [1] | other results
1 | 0.00892 | 0.4226 | 0.008917 | 1.45 | 0.5196 | 0.2033 | 0.004289 | 0.3272 | 0.006904 | 0.2719 | 0.005738 | 0.1266 | 1.766 | 0.03726 | 0.3298 | 0.006959 | 0.00615 | 0.1236 | C=CC(=O)N1CCN(C(=O)OC(C)(C)C)CC1 [CA-029] | 0.01716 | 0.0211 | Rate constant with Cdk2 H71C (Cdk2(H71C) (C177A)): 0.002672; Rate constant with Cdk2 F80C (Cdk2(C177A, F80C)): 0.002607
2 | 0.00376 | 0.574 | 0.003762 | 0.4353 | 0.5564 | 0.5841 | 0.003828 | 0.8088 | 0.005301 | 0.4193 | 0.002748 | 1.823 | 2.26 | 0.01481 | 0.8531 | 0.005591 | 0.00864 | 2.859 | C=CC(=O)N1CCN(Cc2ccc(Cl)cc2)CC1 [EL-1183] | 0.00676 | 0.006554 | Rate constant with Cdk2 H71C (Cdk2(H71C) (C177A)): 0.01195; Rate constant with Cdk2 F80C (Cdk2(C177A, F80C)): 0.01874
3 | 0.04257 | 2.91 | 0.04257 | 0.3151 | 5.157 | 0.1215 | 0.001778 | 0.5636 | 0.008245 | 0.09535 | 0.001395 | 0.5064 | 5.547 | 0.08115 | 0.3187 | 0.004663 | 0.1351 | 0.4287 | C=CC(=O)N1CCc2cc(-c3cccc(F)c3)ccc21 [CA-042] | 0.00825 | 0.01463 | Rate constant with Cdk2 H71C (Cdk2(H71C) (C177A)): 0.007409; Rate constant with Cdk2 F80C (Cdk2(C177A, F80C)): 0.006272
4 | 0.743 | 2.797 | 0.743 | 0.5342 | 2.774 | 1.407 | 0.3736 | 0.6924 | 0.1839 | 0.715 | 0.1899 | 1.102 | 2.615 | 0.6945 | 0.7715 | 0.2049 | 1.391 | 0 | C=CC(=O)Nc1sc2c(c1C(=O)NC1CC1)CCC2 [CA-155] | 0.2678 | 0.2656 | Rate constant with Cdk2 H71C (Cdk2(H71C) (C177A)): 0.2926
5 | 0.1507 | 0.9532 | 0.1507 | 0.2468 | 1.065 | 1.616 | 0.2555 | 2.953 | 0.4669 | 3.356 | 0.5306 | 5.546 | 2.909 | 0.4599 | 0.8912 | 0.1409 | 0.6107 | 1.581 | C=CC(=O)N(Cc1ccco1)Cc1cc2cc(C)ccc2o1 [CA-178] | 0.1415 | 0.1581 | Rate constant with Cdk2 H71C (Cdk2(H71C) (C177A)): 0.8769; Rate constant with Cdk2 F80C (Cdk2(C177A, F80C)): 0.2499
6 | 0.00688 | 0.1766 | 0.003072 | 1.479 | 0.4081 | 0.221 | 0.003846 | 0.5294 | 0.009212 | 1.169 | 0.02034 | 0 | 1.063 | 0.01849 | 0.5614 | 0.009769 | 0.00466 | 0.02876 | C=CC(=O)N(CC(=O)NC1CC1)C1CC1 [CA-031] | 0.01687 | 0.0174 | Rate constant with Cdk2 F80C (Cdk2(C177A, F80C)): 0.0005005
